# According to patent US11059845B2, “Immune stimulating macrolides” (ISR IMMUNE SYSTEM REGULATION HOLDING AB (PUBL), priority 2017, dated 2021):
# What was measured:
# PBMCs [1] = assay: Cytokine/chemokine secretion from PBMCs (cytometric bead assay); format: cell-based, human; conditions: 2 days
# Procedure: FIG. 11: Chemokine RANTES secretion (as measured by cytometric bead assay) from PBMC or macrophages stimulated with indicated compound for 48 h.
# FIG. 12: IL12p70 secretion (as measured by cytometric bead assay) from PBMC or macrophages stimulated with indicated compound for 48 h.
# FIG. 13: IL1b secretion (as measured by cytometric bead assay) from PBMC, macrophages or CD4 T cells stimulated with indicated compound for 48 h.
# Study 10: PBMCs and macrophages where exposed to compounds 1 or 2 for 2 days (FIG. 11).
# Study 11: PBMCs and macrophages where exposed to compounds 1 and 2 for 2 days.
# Study 12: PBMCs, macrophages and CD4+ T cells where exposed to compounds 1 and 2 for 2 days.
# Escherichia coli = assay: Minimum Inhibitory Concentration (MIC) assay; format: cell-based; conditions: anaerobic, 37° C., 18 h
# Procedure: (§1) The bioactivity of macrolide compounds against 4 strains of common gut bacteria (Escherichia coli, Streptococcus salivarius subsp. salivarius, Lactobacillus casei and Bifidobacterium longum subsp. infantis) and common mammalian skin isolate Micrococcus luteus, was assessed using the Minimum Inhibitory Concentration (MIC) assay. Bacterial strains were purchased from DSMZ (Brunswick, Germany) except M. luteus which was obtained from NCIMB, and stored in 20% glycerol at −80° C. Stock solutions (100% DMSO) of positive controls (azithromycin and erythromycin), and of test compounds 1 and 2 were diluted in broth to working stock concentrations of 256 μg/ml (final assay testing concentration range 128 μg/ml to 0.00391 μg/ml). Stock solutions of all other compounds were diluted in broth to working stock concentrations of 128 μg/ml (final assay testing concentration range 64 μg/ml to 0.00195 μg/ml). Bacterial strains were cultivated in appropriate broth in an anaerobic chamber at 37° C., except for M. luteus which was incubated aerobically at 37° C. 18 h cultures were diluted in broth to an OD595 of 0.1 and then further diluted 1:10. In 96-well plates, in duplicate, 200 μl working stock of test compound was transferred to well 1 and serially diluted (1:2) in broth. 100 μl bacterial suspension was aliquoted into each well and mixed thoroughly. Appropriate sterility controls were included and plates were incubated in an anaerobic chamber, or aerobically (M. luteus) at 37° C. for 18 h. The MIC was determined to be the concentration of test compound in the first well with no visible growth.
# [2] = system: Bifidobacterium longum subsp. infantis; assay: Minimum Inhibitory Concentration (MIC) assay; format: cell-based; conditions: anaerobic, 37° C., 18 h
# Procedure: as §1
# [3] = system: Streptococcus salivarius subsp. salivarius; assay: Minimum Inhibitory Concentration (MIC) assay; format: cell-based; conditions: anaerobic, 37° C., 18 h
# Procedure: as §1
# Micrococcus luteus = assay: Minimum Inhibitory Concentration (MIC) assay; format: cell-based; conditions: aerobic, 37° C., 18 h
# Procedure: as §1
# Lactobacillus casei = assay: Minimum Inhibitory Concentration (MIC) assay; format: cell-based; conditions: Lacticaseibacillus casei; anaerobic, 37° C., 18 h
# Procedure: as §1
# [4] = system: Monocytes differentiated into macrophages; assay: CD80 expression on monocytes differentiated into macrophages; format: cell-based, human; conditions: 24 h
# Procedure: (§2) Human peripheral blood mononuclear cells (PBMCs) were purified from healthy donors with Ficoll-Paque density centrifugation. Cells were cultured in complete RPMI-1640 medium (Invitrogen) supplemented with 25 mM HEPES, L-glutamine, Sodium pyruvate (Sigma), 10% fetal bovine serum, 100 μg/mL penicillin and 100 μg/mL streptomycin (Hyclone). Cells were stimulated for 24 h (study 1-4) or 48 h to 1 week (study 5) in 37° C., 5% CO2 with increasing concentrations of compound 1 and 2 in tissue culture plates. The cells were removed from the plate, washed in PBS and analysed for expression of cell specific surface markers and MHC class I with flow cytometry using monoclonal antibodies from BD Pharmingen and a FACS Canto II flow cytometer.
# PBMCs [5] = assay: Supernatant IL-10 sandwich ELISA; format: cell-based, human; conditions: 100 U/mL IL-2, 48 h and 7 days
# Procedure: Supernatant IL-10 was measured with a standard sandwich ELISA (all antibodies from BD Biosciences) after 48 hours and 7 days incubation with 2.5 μM of compound 1 and 100 U/mL IL-2 (Miltenyi Biotechnologies) in complete RPMI media, 37° C., 5% CO2
# Supernatant IL-10 was measured with a standard sandwich ELISA (all antibodies from BD Biosciences) after 48 hours and 7 days incubation with 2.5 uM of compound 1 and 100 U/mL IL-2 (Miltenyi Biotechnologies) in complete RPMI media, 37° C., 5% CO2.
# [6] = system: E. coli, S. salivarius, L. casei, B. longum or M. luteus; assay: Direct antibacterial activity, summary over all strains tested; format: cell-based; conditions: against the bacterial strains tested (Table 1)
# Procedure: as §1
# [7] = system: peripheral blood mononuclear cells (PBMC); assay: Marker expression on PBMC by flow cytometry; format: cell-based, human; conditions: 24 h
# Procedure: Human peripheral blood mononuclear cells (PBMCs) were purified from healthy donors with Ficoll-Paque density centrifugation. Cells were cultured in complete RPMI-1640 media (Invitrogen) supplemented with 25 mM HEPES, L-glutamine, Sodium pyruvate (Sigma), 10% fetal bovine serum, 100 μg/mL penicillin and 100 μg/mL streptomycin (Hyclone) for 24-72 hours in 37° C., 5% CO2 and stimulated with and increasing concentrations of compound 1 and 2. Cells were then washed in PBS and stained with monoclonal antibodies specific for cell surface markers (BD Pharmingen) and analysed with flow cytomtetry using a BD FACS Canto II flow cytometer. All samples were tested in duplicates.
# as §2
# human TLR2 = target: T1, human TLR2 (Homo sapiens, UniProt O60603); assay: TLR2 reporter assay (HEK-293-TLR, SEAP); format: cell-based
# T1 construct: host or cells: recombinant HEK-293-TLR cell lines (hTLR2, NFkB-SEAP reporter)
# Procedure: Samples and controls were tested in duplicate on recombinant HEK-293-TLR cell lines using a cell reporter assay at Invivogen using their standard assay conditions. These cell lines functionally over-express human TLR2 protein as well as a reporter gene which is a secreted alkaline phosphatase (SEAP). The production of this reporter gene is driven by an NFkB inducible promoter. The TLR reporter cell lines activation results are given as optical density values (OD). 20 μl of each test article were used to stimulate the hTLR2 reporter cell lines in a 200 μl of final reaction volume. Samples were tested in duplicate, with at least two concentrations tested—20 uM and 10 uM.
# Compounds were tested using a TLR2 reporter assay (see general methods) that measured for stimulation of the TLR2 receptor. Stimulatory effect was measured as an increase in optical density (OD) due to release of secreted alkaline phosphatase (SEAP) and is shown in table 4: […]
# T1 sequence (O60603 21-784): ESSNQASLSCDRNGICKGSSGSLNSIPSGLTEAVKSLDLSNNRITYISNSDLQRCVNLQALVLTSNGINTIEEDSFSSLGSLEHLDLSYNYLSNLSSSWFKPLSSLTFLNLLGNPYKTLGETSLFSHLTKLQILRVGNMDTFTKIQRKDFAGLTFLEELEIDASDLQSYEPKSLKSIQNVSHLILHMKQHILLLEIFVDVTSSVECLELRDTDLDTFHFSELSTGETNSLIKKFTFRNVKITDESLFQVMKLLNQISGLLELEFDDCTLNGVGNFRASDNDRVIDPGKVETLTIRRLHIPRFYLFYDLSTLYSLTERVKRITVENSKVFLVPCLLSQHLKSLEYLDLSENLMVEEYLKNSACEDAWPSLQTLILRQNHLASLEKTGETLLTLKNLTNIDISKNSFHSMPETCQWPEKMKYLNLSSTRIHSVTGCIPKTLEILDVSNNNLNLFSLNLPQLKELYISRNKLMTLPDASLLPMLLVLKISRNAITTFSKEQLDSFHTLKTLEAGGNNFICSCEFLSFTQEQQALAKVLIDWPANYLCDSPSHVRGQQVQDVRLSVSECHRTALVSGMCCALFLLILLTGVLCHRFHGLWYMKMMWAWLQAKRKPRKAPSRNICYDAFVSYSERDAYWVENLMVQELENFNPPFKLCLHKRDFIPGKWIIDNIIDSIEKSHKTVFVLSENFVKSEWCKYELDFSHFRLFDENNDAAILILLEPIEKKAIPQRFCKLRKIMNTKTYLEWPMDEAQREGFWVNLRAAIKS
smiles,measurement,setting,value
CC[C@H]1OC(=O)[C@H](C)[C@@H](O[C@H]2C[C@@H](N(C)C)[C@H](O)[C@@H](C)O2)[C@H](C)[C@@H](O)[C@](C)(O)C[C@@H](C)CN(C)[C@H](C)[C@@H](O)[C@]1(C)O [Compound 1],"IL-1beta secretion, PBMCs",PBMCs [1],slightly
same,"IL-12p70 secretion, PBMCs",PBMCs [1],secreted IL-12p70
same,expression of RANTES in PBMCs,PBMCs [1],twofold upregulation
same,MIC,Escherichia coli,> 64 µg/mL
same,MIC,[2],> 64 µg/mL
same,MIC,[3],> 64 µg/mL
same,MIC,Micrococcus luteus,> 256 µg/mL
same,MIC,Lactobacillus casei,> 64 µg/mL
same,CD80 on macrophages,[4],upregulated
same,production of IL-10,PBMCs [5],increased production
same,antibacterial activity,[6],no antibacterial activity
same,activation marker CD69 on B cells,[7]; 1 μM,upregulated
same,activation marker CD69 on CD4+ T cells,[7]; 1 μM,upregulated
same,MHC class I (HLA-ABC) on B-cells,[7],upregulation
same,MHC class I (HLA-ABC) on T-cells,[7],upregulation
same,MHC class II (HLA-DR) on monocytes,[7],upregulation
same,co-stimulatory molecule CD80 on monocytes,[7],upregulation
same,OD after addition of 5 μM test article,"human TLR2; 5 μM, SEAP reporter optical density",0.111
same,OD after addition of 10 μM test article,"human TLR2; 10 μM, SEAP reporter optical density",0.202
same,OD after addition of 20 μM test article,"human TLR2; 20 μM, SEAP reporter optical density",0.458
same,concentrations at which TLR2 was stimulated (down to),human TLR2; lowest stimulating concentration tested,≥ 5 µM
